{
  "source": "patent US20260232767A1",
  "about": "“INTERLEUKIN-23 RECEPTOR ANTAGONIST PEPTIDES FOR USE IN THE TREATMENT OF PSORIASIS” (Janssen Pharmaceutica NV, priority 2023, published 2026)",
  "key": {"[1]": {"test_system": "subjects with moderate-to-severe plaque psoriasis", "assay": "PSSD symptoms and signs scores, Example 1", "type": "in vivo, human", "settings": "each dose group vs placebo; Week 16", "text": "The Psoriasis Symptom and Sign Diary (PSSD) includes patient-reported outcome (PRO) questionnaires designed to measure the severity of psoriasis symptoms and signs for the assessment of treatment benefit. This study uses a 7-day recall version of the PSSD that asks the participant to answer the questions thinking about the last 7 days. The PSSD is a self-administered PRO instrument and includes 11 items covering symptoms (itch, pain, stinging, burning, and skin tightness) and patient-observable signs (skin dryness, cracking, scaling, shedding or flaking, redness, and bleeding) using 0 to 10 numerical rating scales for severity. Two subscores will be derived each ranging from 0 to 100: the psoriasis symptom score and the psoriasis sign score. A higher score indicates more severe disease.\nEfficacy, PK, immunogenicity, biomarker, pharmacogenomic, and safety criteria were measured during the treatment. Subjects were provided with an electronic device to enter patient-reported outcome (PRO) data at each study visit. All visit-specific PRO assessments were conducted/completed before any tests, procedures or other clinical assessments, with the exception of the urine pregnancy test and urinalysis, to prevent influencing subject perceptions."}, "IL-17F": {"test_system": "IL-17F", "assay": "Serum IL-17F immunoassay", "type": "in vivo, human", "settings": "all treatment groups relative to placebo", "experimental": "To evaluate psoriasis relevant systemic biomarkers (Beta-defensin 2 (BD-2), IL-17A, IL-17F, and IL-22), protein concentrations were measured in serum using validated immunoassays. The IL-17A (Catalog #03-0159-00) and IL-17F (Catalog #03-0164-00) assays used are commercially available SMC™-based high sensitivity immunoassays produced by the EMD Millipore Corporation. The manufacturer's protocols were followed and analyzed on the Erenna® instrument platform except for the use of 11 μL Elution Buffer B. While the IL-22 assay is also based on the SMC™ platform and run on the Erenna instrument, the assay was developed internally as a coated plate-based assay. The development and optimization of the BD-2 assay was done on the Meso Scale Discovery on the electrochemiluminescence-based platform, a division of Meso Scale Diagnostics LLC (MSD). For all assays, concentration adjustments were made to values measuring below empirically defined LLOQ or empirically defined ULOQ values. Assay QC verified performance of generated standard curves (average concentration recovery & CV of technical replicates) and control samples (inter-assay plate agreement (CV)).\nSerum levels of psoriasis disease biomarkers BD-2, IL-22, IL-17A, and IL-17F relative to baseline were analyzed in patients who received placebo or the compound of Formula (I) and compared to clinical response. […]"}, "[2]": {"test_system": "subjects with moderate-to-severe plaque psoriasis", "assay": "Lipid panel laboratory values", "type": "in vivo, human", "settings": "Week 52"}, "[3]": {"test_system": "anti-drug antibodies to the IL-23 receptor antagonist peptide"}},
  "note": "Where two headings read alike, the source gives them in different places.",
  "data": [
    {"smiles": "CC(=O)NCCCC[C@@H]1NC(=O)[C@H](Cc2c[nH]c3c(C)cccc23)NC(=O)[C@H]([C@@H](C)O)NC(=O)[C@H](CC(N)=O)NC(=O)[C@@H](NC(C)=O)C(C)(C)SSC(C)(C)[C@@H](C(=O)N[C@@H](Cc2ccc(OCCN)cc2)C(=O)N[C@@H](Cc2ccc3ccccc3c2)C(=O)NC2(C(=O)N[C@@H](CCC(=O)O)C(=O)N[C@@H](CC(N)=O)C(=O)N[C@@H](Cc3cccnc3)C(=O)N(C)CC(N)=O)CCOCC2)NC1=O", "note": "[IL-23 receptor antagonist peptide, Ac-[Pen]*-N-T-[W(7-Me)]-[Lys(Ac)]-[Pen]*-Phe[4-(2-aminoethoxy)]-[2-Nal]-[THP]-E-N-[3-Pal]-Sarc-NH2 (*[Pen]-[Pen]* formdisulfidebond)]", "values": [
      {"measurement": "Improvement (reduction) in PSSD signs score from baseline", "setting": "[1]", "value": "significantly greater improvement"},
      {"measurement": "Improvement (reduction) in PSSD symptoms score from baseline", "setting": "[1]", "value": "significantly greater improvement"},
      {"measurement": "IL-17F serum levels", "setting": "IL-17F", "value": "Statistically significant reductions"},
      {"measurement": "HDL Cholesterol change from baseline, Mean", "setting": "[2]; 25 mg BID", "value": 0.011, "unit": "mmol/L"},
      {"measurement": "HDL Cholesterol change from baseline, Median", "setting": "[2]; 25 mg BID", "value": -0.010, "unit": "mmol/L"},
      {"measurement": "LDL Cholesterol change from baseline, Mean", "setting": "[2]; 25 mg BID", "value": -0.155, "unit": "mmol/L"},
      {"measurement": "LDL Cholesterol change from baseline, Median", "setting": "[2]; 25 mg BID", "value": -0.105, "unit": "mmol/L"},
      {"measurement": "Triglycerides change from baseline, Mean", "setting": "[2]; 25 mg BID", "value": 0.144, "unit": "mmol/L"},
      {"measurement": "Triglycerides change from baseline, Median", "setting": "[2]; 25 mg BID", "value": 0.040, "unit": "mmol/L"},
      {"measurement": "HDL Cholesterol change from baseline, Mean", "setting": "[2]; 25 mg QD", "value": -0.034, "unit": "mmol/L"},
      {"measurement": "HDL Cholesterol change from baseline, Median", "setting": "[2]; 25 mg QD", "value": -0.023, "unit": "mmol/L"},
      {"measurement": "LDL Cholesterol change from baseline, Mean", "setting": "[2]; 25 mg QD", "value": 0.069, "unit": "mmol/L"},
      {"measurement": "LDL Cholesterol change from baseline, Median", "setting": "[2]; 25 mg QD", "value": 0.132, "unit": "mmol/L"},
      {"measurement": "Triglycerides change from baseline, Mean", "setting": "[2]; 25 mg QD", "value": 0.034, "unit": "mmol/L"},
      {"measurement": "Triglycerides change from baseline, Median", "setting": "[2]; 25 mg QD", "value": 0.040, "unit": "mmol/L"},
      {"measurement": "HDL Cholesterol change from baseline, Mean", "setting": "[2]; 50 mg QD", "value": -0.009, "unit": "mmol/L"},
      {"measurement": "HDL Cholesterol change from baseline, Median", "setting": "[2]; 50 mg QD", "value": 0.014, "unit": "mmol/L"},
      {"measurement": "LDL Cholesterol change from baseline, Mean", "setting": "[2]; 50 mg QD", "value": -0.146, "unit": "mmol/L"},
      {"measurement": "LDL Cholesterol change from baseline, Median", "setting": "[2]; 50 mg QD", "value": -0.095, "unit": "mmol/L"},
      {"measurement": "Triglycerides change from baseline, Mean", "setting": "[2]; 50 mg QD", "value": 0.156, "unit": "mmol/L"},
      {"measurement": "Triglycerides change from baseline, Median", "setting": "[2]; 50 mg QD", "value": 0.067, "unit": "mmol/L"},
      {"measurement": "HDL Cholesterol change from baseline, Mean", "setting": "[2]; 100 mg BID", "value": -0.027, "unit": "mmol/L"},
      {"measurement": "HDL Cholesterol change from baseline, Median", "setting": "[2]; 100 mg BID", "value": -0.020, "unit": "mmol/L"},
      {"measurement": "LDL Cholesterol change from baseline, Mean", "setting": "[2]; 100 mg BID", "value": -0.056, "unit": "mmol/L"},
      {"measurement": "LDL Cholesterol change from baseline, Median", "setting": "[2]; 100 mg BID", "value": -0.110, "unit": "mmol/L"},
      {"measurement": "Triglycerides change from baseline, Mean", "setting": "[2]; 100 mg BID", "value": 0.137, "unit": "mmol/L"},
      {"measurement": "Triglycerides change from baseline, Median", "setting": "[2]; 100 mg BID", "value": 0.010, "unit": "mmol/L"},
      {"measurement": "HDL Cholesterol change from baseline, Mean", "setting": "[2]; 100 mg QD", "value": -0.023, "unit": "mmol/L"},
      {"measurement": "HDL Cholesterol change from baseline, Median", "setting": "[2]; 100 mg QD", "value": -0.027, "unit": "mmol/L"},
      {"measurement": "LDL Cholesterol change from baseline, Mean", "setting": "[2]; 100 mg QD", "value": -0.147, "unit": "mmol/L"},
      {"measurement": "LDL Cholesterol change from baseline, Median", "setting": "[2]; 100 mg QD", "value": -0.060, "unit": "mmol/L"},
      {"measurement": "Triglycerides change from baseline, Mean", "setting": "[2]; 100 mg QD", "value": 0.024, "unit": "mmol/L"},
      {"measurement": "Triglycerides change from baseline, Median", "setting": "[2]; 100 mg QD", "value": -0.005, "unit": "mmol/L"},
      {"measurement": "HDL Cholesterol change from baseline, Mean", "setting": "[2]; Combined", "value": -0.012, "unit": "mmol/L"},
      {"measurement": "HDL Cholesterol change from baseline, Median", "setting": "[2]; Combined", "value": -0.020, "unit": "mmol/L"},
      {"measurement": "LDL Cholesterol change from baseline, Mean", "setting": "[2]; Combined", "value": -0.098, "unit": "mmol/L"},
      {"measurement": "LDL Cholesterol change from baseline, Median", "setting": "[2]; Combined", "value": -0.105, "unit": "mmol/L"},
      {"measurement": "Triglycerides change from baseline, Mean", "setting": "[2]; Combined", "value": 0.118, "unit": "mmol/L"},
      {"measurement": "Triglycerides change from baseline, Median", "setting": "[2]; Combined", "value": 0.020, "unit": "mmol/L"},
      {"measurement": "HDL Cholesterol change from baseline, Mean", "setting": "[2]; Placebo → 100 mg QD", "value": 0.013, "unit": "mmol/L"},
      {"measurement": "HDL Cholesterol change from baseline, Median", "setting": "[2]; Placebo → 100 mg QD", "value": -0.035, "unit": "mmol/L"},
      {"measurement": "LDL Cholesterol change from baseline, Mean", "setting": "[2]; Placebo → 100 mg QD", "value": -0.138, "unit": "mmol/L"},
      {"measurement": "LDL Cholesterol change from baseline, Median", "setting": "[2]; Placebo → 100 mg QD", "value": -0.212, "unit": "mmol/L"},
      {"measurement": "Triglycerides change from baseline, Mean", "setting": "[2]; Placebo → 100 mg QD", "value": 0.207, "unit": "mmol/L"},
      {"measurement": "Triglycerides change from baseline, Median", "setting": "[2]; Placebo → 100 mg QD", "value": 0.035, "unit": "mmol/L"},
      {"measurement": "Footnote d group: Baseline titers 1:50, n subjects", "setting": "[3]; 25 mg BID, N=41", "value": 0},
      {"measurement": "Peak titer group <50, n subjects", "setting": "[3]; 25 mg BID, N=41", "value": 0},
      {"measurement": "Peak titer group >50-<100, n subjects", "setting": "[3]; 25 mg BID, N=41", "value": 0},
      {"measurement": "Peak titer group ≥100-<1000, n subjects", "setting": "[3]; 25 mg BID, N=41", "value": 0},
      {"measurement": "Peak titer group ≥1000, n subjects", "setting": "[3]; 25 mg BID, N=41", "value": 0},
      {"measurement": "Positive at baseline: Baseline titers 1:50, n subjects", "setting": "[3]; 25 mg BID, N=41", "value": 0},
      {"measurement": "Treatment-boosted (footnote c): Baseline titers 1:50, n subjects", "setting": "[3]; 25 mg BID, N=41", "value": 0},
      {"measurement": "Treatment-emergent: Peak titers 1:50, n subjects", "setting": "[3]; 25 mg BID, N=41", "value": 0},
      {"measurement": "Subjects negative for treatment-emergent anti-peptide antibodies, %", "setting": "[3]; 25 mg BID, through Week 16 or Follow-up Week 20, N=41", "value": 100, "unit": "%"},
      {"measurement": "Footnote d group: Baseline titers 1:50, n subjects", "setting": "[3]; 25 mg QD, N=42", "value": 0},
      {"measurement": "Peak titer group <50, n subjects", "setting": "[3]; 25 mg QD, N=42", "value": 1},
      {"measurement": "Peak titer group >50-<100, n subjects", "setting": "[3]; 25 mg QD, N=42", "value": 0}
    ]}
  ]
}
